Data as given in ChEMBL document CHEMBL1201862, “PubChem BioAssay data set” (2004).
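A five-concentration, 48-hour dose response in 96-well plates underlies each endpoint, interpolated linearly between surrounding concentrations. GI50 = concentration required for 50% inhibition of growth.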 Active and inactive are the calls of the source. No stated cut-off is given here; in the data, active = GI50 up to about 1.1 µM and inactive = higher.

Columns and labels:
Assay in all cases: inhibition of tumour cell growth, NCI panel, 48 h
OVCAR-3 = test system: OVCAR-3
Malme-3M = test system: Malme-3M
786-0 = test system: 786-0
HL-60 = test system: HL-60
DU-145 = test system: DU-145
EKVX = test system: EKVX
TK-10 = test system: TK-10
OVCAR-5 = test system: OVCAR-5
SNB-19 = test system: SNB-19
SF-268 = test system: SF-268
MDA-MB-231 = test system: MDA-MB-231
SN12C = test system: SN12C
UACC-257 = test system: UACC-257
KM12 = test system: KM12
CAKI-1 = test system: CAKI-1
SK-MEL-2 = test system: SK-MEL-2
U-251 = test system: U-251
SNB-75 = test system: SNB-75
Hs-578T = test system: Hs-578T

Measured: GI50

O=c1oc2nc(-c3ccccc3)cc(C(F)(F)F)c2n1Cc1ccccc1
inactive: OVCAR-3 4.06 µM | Malme-3M 1.89 µM | 786-0 5.43 µM | HL-60 2.15 µM | DU-145 11.3 µM | EKVX 7.03 µM | TK-10 46.6 µM | OVCAR-5 > 100 µM | SNB-19 6.52 µM | SF-268 > 25 µM | MDA-MB-231 > 24.4 µM | SN12C 5.9 µM | UACC-257 > 37.8 µM | KM12 2.84 µM | CAKI-1 7.8 µM | SK-MEL-2 6.43 µM | U-251 4.8 µM

O=C1CCCC2=C1CC1=C(CCCC1=O)N2c1ccccc1C(=O)O
inactive: OVCAR-3 > 100 µM | 786-0 > 100 µM | HL-60 > 100 µM | EKVX > 100 µM | TK-10 > 100 µM | OVCAR-5 > 100 µM | SNB-19 > 100 µM | SF-268 > 100 µM | SN12C > 100 µM | SNB-75 > 100 µM | KM12 > 100 µM | CAKI-1 > 100 µM | U-251 > 100 µM | Hs-578T > 100 µM

Cc1cccc2c(=O)c3cccc(CC(=O)O)c3oc12
inactive: OVCAR-3 > 100 µM | Malme-3M > 100 µM | 786-0 > 100 µM | HL-60 > 100 µM | EKVX > 100 µM | TK-10 > 100 µM | SNB-19 > 100 µM | SF-268 > 100 µM | MDA-MB-231 > 100 µM | SN12C > 100 µM | UACC-257 > 100 µM | KM12 > 100 µM | CAKI-1 > 100 µM | SK-MEL-2 > 100 µM | U-251 > 100 µM | Hs-578T > 100 µM

COC(=O)[C@@]12C3=NO[C@]1(C(=O)OC)C(O[Si](C)(C)C(C)(C)C)C1OC(C)(C)OC1[C@@H]2[C@@H](OCc1ccccc1)CC3 (stereo not given in full)
inactive: OVCAR-3 39.7 µM | 786-0 > 100 µM | HL-60 3.11 µM | EKVX > 100 µM | TK-10 > 100 µM | SNB-19 > 100 µM | SN12C > 100 µM | SNB-75 9.66 µM | KM12 7.73 µM | SK-MEL-2 > 100 µM | U-251 > 100 µM

O=C(O)c1cc(NCc2cc(O)ccc2O)ccc1O [LAVENDUSTIN C]
inactive: OVCAR-3 > 100 µM | 786-0 45.3 µM | DU-145 > 100 µM | EKVX > 100 µM | TK-10 > 100 µM | OVCAR-5 > 100 µM | SNB-19 > 100 µM | SF-268 > 100 µM | MDA-MB-231 > 100 µM | SN12C > 100 µM | UACC-257 > 100 µM | SNB-75 > 100 µM | KM12 > 100 µM | CAKI-1 > 100 µM | SK-MEL-2 > 100 µM | U-251 > 100 µM | Hs-578T > 100 µM
